Test results reported in article PMC9926489, “Chemical Optimization of Selective Pseudomonas aeruginosa LasB Elastase Inhibitors and Their Impact on LasB-Mediated Activation of IL-1β in Cellular and Animal Infection Models” (ACS Infectious Diseases, 2023).
≈ marks a conversion by molar mass, not a printed value.

Legend:
[1] = Thermodynamic solubility in PBS (pH 7.4); type: physicochemical; conditions: aqueous buffer, thermodynamic from solid
purified LasB = target: T1, purified LasB (Pseudomonas aeruginosa, UniProt P14756); test: LasB inhibition, fluorimetric Abz-AGLA-Nba hydrolysis assay with purified LasB; type: biochemical
T1 construct: The mature LasB protein is a 33 kDa metalloprotease, which is secreted from P. aeruginosa; host or cells: P. aeruginosa PAO1 (native secretion, culture supernatant)
Source text: (§1) This was chosen as the starting point for a medicinal chemistry-driven lead optimization program aiming to improve potency and solubility whilst retaining selectivity against host metalloenzymes. All synthesized compounds were initially assessed in a fluorimetric assay measuring hydrolysis of a fluorogenic substrate Abz-Ala-Gly-Leu-Ala-4-nitrobenzylamide (Abz-AGLA-Nba) by purified LasB and IC50 values determined (Tables 1 and 2). Inhibition of elastin hydrolytic activity was confirmed using an orthogonal assay measuring hydrolysis of Elastin Congo Red (ECR) complex by LasB prepared directly from a P. aeruginosa culture supernatant (Tables 1 and 2). […] Aqueous solubility was determined for most compounds (Tables 1 and 2).
Native LasB protein was purified from culture supernatants of P. aeruginosa strain PAO1 (Charles River Laboratories, U.K.). Briefly, the sample was concentrated by ultrafiltration and the protein was purified by chromatography using an anion exchange (pH 8.5) step followed by gel filtration. This procedure yielded an enzyme preparation (0.8 mg/mL) of >98% purity. The enzyme was stored at −80 °C.
LasB inhibition assays were performed using purified LasB enzyme (1 ng/well) for compound screening or using culture supernatants (prepared as described in the ECR assay) for testing LasB variants. Hydrolysis of the fluorogenic peptide substrate 2-aminobenzoyl-Ala-Gly-Leu-Ala-4-nitrobenzylamide (Abz-AGLA-Nba; Peptide International) in 50 mM Tris-HCl (pH 7.4), supplemented with 2.5 mM CaCl2 was followed using an Envision microplate reader (PerkinElmer) at 315 nm excitation and 430 nm emission. For screening of lead compounds, assays were performed in the presence of 0.01% Triton X-100 with a range of inhibitor concentrations from 0.003 to 3.2 μM. IC50 values were determined from Hill plots using Dotmatics Studies ELN software. For the mechanism of inhibition studies, hydrolysis rates were measured in the presence of variable concentrations of substrate and inhibitor, and the inhibition constant (Ki) was determined using Dixon plot analysis.[31]

[2] = target: T2, LasB (P. aeruginosa PAO1 culture supernatant) (Pseudomonas aeruginosa, UniProt P14756); test: Elastin Congo Red (ECR) assay, elastin hydrolysis by dialyzed PAO1 culture supernatant; type: biochemical; conditions: 25 μM inhibitor
T2 construct: The mature LasB protein is a 33 kDa metalloprotease, which is secreted from P. aeruginosa; endogenous in cells; host or cells: P. aeruginosa PAO1 culture supernatant, filtered and dialyzed
Source text: as §1
Inhibition of elastin hydrolysis by native LasB, secreted in P. aeruginosa culture supernatants, was measured using the Elastin Congo Red (ECR) assay. Culture supernatants from P. aeruginosa strain PAO1, grown in LB medium at 37 °C for 24 h, were filtered and dialyzed against 50 mM Tris-HCl pH 7.4, 2.5 mM CaCl2 solution at 4 °C and supplemented with 0.01%Triton X-100, 10 mg/mL ECR (Sigma) and 25 μM inhibitor compounds. The reaction mixture was incubated for 16 h at 37 °C with shaking before centrifugation and recovery of the supernatant and measurement of solubilized congo red by absorbance (OD495) using an EnSight multimode plate reader (PerkinElmer).

[3] = target: T3, secreted LasB in P. aeruginosa PAO1-infected THP-1 macrophages (Pseudomonas aeruginosa, UniProt P14756); test: LasB activity (Sub115 hydrolysis) in supernatants of P. aeruginosa-infected THP-1 macrophages; type: cell-based; conditions: infected THP-1 cells, 5 μM
T3 construct: The mature LasB protein is a 33 kDa metalloprotease, which is secreted from P. aeruginosa; endogenous in cells; host or cells: P. aeruginosa PAO1 infecting human THP-1 macrophages (MOI 10:1); supernatant after 2 h
Protocol: (§2) Further to showing in vitro inhibition of LasB-mediated pro-IL-1β proteolysis, experiments were performed to determine the effect of compounds 12 and 16 on IL-1β activation and functionality in human macrophage cell cultures infected with P. aeruginosa PAO1, or an isogenic lasB deletion mutant thereof (ΔlasB). In these experiments, the levels of LasB activity in culture supernatants were measured via hydrolysis of the Sub115 fluorescent peptide, while the effect of LasB activity on IL-1β activation (functionality) was measured using a luciferase reporter cell line sensitive to IL-1β induction (Figure 3).
Human THP-1 macrophages were cultured by conventional methods then, pre-infection, culture media were replaced by RPMI lacking phenol red and antibiotics. Compounds VX-765 (caspase-1 inhibitor, developed by Vertex) and/or LasB inhibitors were added, immediately followed by inoculation with P. aeruginosa PAO1 or an isogenic lasB deletion mutant (ΔlasB), previously grown in Luria broth to late exponential phase (OD600 = 1.2) then washed and diluted in PBS, at a multiplicity of infection (MOI) of 10 to 1. After 2 h post-infection, 50 μL aliquots of supernatant were removed and used to quantitate both LasB activity and IL-1β functionality. To determine LasB activity, 50 μL of supernatant was added to Sub115 IL-1β peptide and hydrolysis of Sub115 was monitored spectrophotometrically with excitation at 355 nm and emission at 450 nm, as described above. Results were expressed as relative fluorescence units (RFU).
In the first variation, experimental infections were performed with P. aeruginosa PAO1 and ΔlasB bacteria incubated with varying quantities of inhibitor at final concentrations ranging from 0.5 to 8 μM. In the second, cells were treated and infected in the same manner and also treated with 5 μM VX-765 to provide a control for IL-1β activation by the inflammasome pathway.

IL-1β activation = IL-1β activation in P. aeruginosa-infected THP-1 macrophages (HEK IL-1R-lux reporter assay); type: cell-based, human; conditions: infected THP-1 cells, 5 μM
Protocol: as §2
Human THP-1 macrophages were cultured by conventional methods then, pre-infection, culture media were replaced by RPMI lacking phenol red and antibiotics. […] After 2 h post-infection, 50 μL aliquots of supernatant were removed and used to quantitate both LasB activity and IL-1β functionality. To determine LasB activity, 50 μL of supernatant was added to Sub115 IL-1β peptide and hydrolysis of Sub115 was monitored spectrophotometrically with excitation at 355 nm and emission at 450 nm, as described above. Results were expressed as relative fluorescence units (RFU).
To determine IL-1β functionality, generation of an IL-1 signal was quantified by adding 50 μL of supernatant to HEK IL-1R-lux reporter cells cultured in RPMI supplemented with 5% heat-inactivated FBS, 200 μg/mL penicillin/streptomycin, 200 μg/mL hygromycin, 100 μg/mL zeomycin, and 0.5 μg/mL puromycin. No bacteria survived in this antibiotic condition; 18 h post-treatment, IL-1β-dependent luciferase induction was assayed by luminescence measured with D-luciferin substrate (Steady-Luc, Biotium) on a multimode reader (PerkinElmer) and expressed as relative luminescence units (RU), as previously described.[16]
In the first variation, experimental infections were performed with P. aeruginosa PAO1 and ΔlasB bacteria incubated with varying quantities of inhibitor at final concentrations ranging from 0.5 to 8 μM. […]

T2 sequence (P14756 198-498): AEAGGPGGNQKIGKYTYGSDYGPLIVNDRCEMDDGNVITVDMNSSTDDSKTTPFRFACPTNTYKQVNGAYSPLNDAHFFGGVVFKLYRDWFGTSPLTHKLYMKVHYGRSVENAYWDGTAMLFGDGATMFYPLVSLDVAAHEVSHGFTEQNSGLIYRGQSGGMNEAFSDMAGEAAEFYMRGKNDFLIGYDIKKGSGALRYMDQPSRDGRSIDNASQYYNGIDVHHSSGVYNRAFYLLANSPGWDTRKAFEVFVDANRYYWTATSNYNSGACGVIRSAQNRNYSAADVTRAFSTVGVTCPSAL
T1 sequence (P14756 198-498): as above
T3 sequence (P14756 198-498): as above

For `O=C(O)CC1(C(=O)NCc2nc3ccccc3s2)Cc2ccccc2C1` [Compound 1], the solubility [1] was 580 µg/mL (≈ 1.58 mM), the IC50 (purified LasB) was 0.41 µM and the “Elastin hydrolysis @ 25 μM (% inh)” value [2] was 69 % inh.

For `O=C(O)CC1(C(=O)NCc2nc3cc(Cl)ccc3s2)Cc2ccccc2C1` [Compound 2], the IC50 (purified LasB) was 0.35 µM and the “Elastin hydrolysis @ 25 μM (% inh)” value [2] was 58 % inh.

For `COc1ccc2sc(CNC(=O)C3(CC(=O)O)Cc4ccccc4C3)nc2c1` [Compound 3], the IC50 (purified LasB) was 0.15 µM and the “Elastin hydrolysis @ 25 μM (% inh)” value [2] was 64 % inh.

For `COc1cc2nc(CNC(=O)C3(CC(=O)O)Cc4ccccc4C3)sc2cc1OC` [Compound 4], the solubility [1] was 2000 µg/mL (≈ 4.69 mM), the IC50 (purified LasB) was 0.02 µM and the “Elastin hydrolysis @ 25 μM (% inh)” value [2] was 82 % inh.

With `O=C(O)CC1(C(=O)NCc2nc3cc4c(cc3s2)OCO4)Cc2ccccc2C1` [Compound 5] the solubility [1] was 2000 µg/mL (≈ 4.87 mM), the IC50 (purified LasB) was 0.12 µM and the “Elastin hydrolysis @ 25 μM (% inh)” value [2] was 75 % inh.

With `CN1CCN(c2ccc3nc(CNC(=O)C4(CC(=O)O)Cc5ccccc5C4)sc3c2)CC1` [Compound 6] the solubility [1] was 3400 µg/mL (≈ 7.32 mM), the IC50 (purified LasB) was 1.57 µM and the “Elastin hydrolysis @ 25 μM (% inh)” value [2] was 39 % inh.

In the case of `CN(C)CCOc1ccc2sc(CNC(=O)C3(CC(=O)O)Cc4ccccc4C3)nc2c1` [Compound 7], the solubility [1] is reported as 4200 µg/mL (≈ 9.26 mM), the IC50 (purified LasB) is reported as 0.67 µM and the “Elastin hydrolysis @ 25 μM (% inh)” value [2] is reported as 42 % inh.

With `C[N+]1(C)CCN(c2ccc3nc(CNC(=O)C4(CC(=O)O)Cc5ccccc5C4)sc3c2)CC1` [Compound 8] the solubility [1] was 18700 µg/mL, the IC50 (purified LasB) was 1.35 µM and the “Elastin hydrolysis @ 25 μM (% inh)” value [2] was 33 % inh.

In the case of `C[N+](C)(C)CCOc1ccc2sc(CNC(=O)C3(CC(=O)O)Cc4ccccc4C3)nc2c1` [Compound 9], the solubility [1] is reported as 18100 µg/mL, the IC50 (purified LasB) is reported as 0.82 µM and the “Elastin hydrolysis @ 25 μM (% inh)” value [2] is reported as 40 % inh.

With `O=C(O)CC1(C(=O)NCc2nc3ccccc3s2)Cc2cc(F)c(F)cc2C1` [Compound 10] the solubility [1] was 600 µg/mL (≈ 1.49 mM), the IC50 (purified LasB) was 0.14 µM and the “Elastin hydrolysis @ 25 μM (% inh)” value [2] was 66 % inh.

In the case of `COc1cc2sc(CNC(=O)C3(CC(=O)O)Cc4ccccc4C3)nc2cc1OCCCN(C)C` [Compound 11], the IC50 (purified LasB) is reported as 0.08 µM and the “Elastin hydrolysis @ 25 μM (% inh)” value [2] is reported as 69 % inh.

With `COc1cc2sc(CNC(=O)C3(CC(=O)O)Cc4ccccc4C3)nc2cc1OCC1CC[N+](C)(C)CC1` [Compound 13] the solubility [1] was 15800 µg/mL, the IC50 (purified LasB) was 0.13 µM and the “Elastin hydrolysis @ 25 μM (% inh)” value [2] was 66 % inh.

For `COc1cc2sc(CNC(=O)C3(CC(=O)O)Cc4cc(F)c(F)cc4C3)nc2cc1OCC1CC[N+](C)(C)CC1` [Compound 14], the solubility [1] was 17800 µg/mL, the IC50 (purified LasB) was 0.09 µM and the “Elastin hydrolysis @ 25 μM (% inh)” value [2] was 72 % inh.

In the case of `COc1cc2sc(CNC(=O)C3(CC(=O)O)Cc4ccccc4C3)nc2cc1OCCC[N+](C)(CCO)CCO` [Compound 15], the solubility [1] is reported as 17600 µg/mL, the IC50 (purified LasB) is reported as 0.19 µM and the “Elastin hydrolysis @ 25 μM (% inh)” value [2] is reported as 69 % inh.

For `CCO[C@@H]1OC(=O)C[C@@H]1NC(=O)[C@@H]1CCCN1C(=O)[C@@H](NC(=O)c1ccc(N)c(Cl)c1)C(C)(C)C` [VX-765, reference compound], the “effect on LasB activity” value [3] was “no effect” and the “effect on IL-1β activation” value (IL-1β activation) was “reduced IL-1β activation”.
